The text below walks through data of patent US20230278996A1, “YKL-40 INHIBITORS AND THEIR THERAPEUTIC APPLICATIONS” (Molecure S.A., priority 2022, published 2023).

Each structure is given as a SMILES string. Counter-ions that a name gives are not always drawn. Bounds are passed on as bounds.

The experiment addresses YKL-40 (Homo sapiens (Human), UniProt P36222). Kind of experiment: YKL-40:4 assay, competitive chitin binding site AlphaScreen. As to conditions: competition with biotinylated compound 4 (20 nM), YKL-40-histag 2.5 nM. For orientation: Alpha assays give light when donor and acceptor beads are brought close together.

YKL-40, sequence (P36222 22-383): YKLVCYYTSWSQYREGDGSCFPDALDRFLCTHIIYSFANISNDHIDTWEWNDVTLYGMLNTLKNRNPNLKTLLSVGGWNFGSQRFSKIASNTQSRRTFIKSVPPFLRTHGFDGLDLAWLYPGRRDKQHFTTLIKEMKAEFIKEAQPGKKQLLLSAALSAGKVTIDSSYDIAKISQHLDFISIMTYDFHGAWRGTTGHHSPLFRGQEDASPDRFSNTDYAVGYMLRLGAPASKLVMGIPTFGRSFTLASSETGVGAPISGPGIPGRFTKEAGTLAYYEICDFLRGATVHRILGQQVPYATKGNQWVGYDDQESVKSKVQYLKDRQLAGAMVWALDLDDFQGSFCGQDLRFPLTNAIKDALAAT

As usually defined, the IC50 is the concentration that gives 50% inhibition. Lower therefore signals greater potency. `C[C@H]1CN(C2CCN(c3ncc(F)cn3)CC2)[C@@H](Cc2ccc(Cl)cc2)CO1` [compound 46, (2S,5S)-5-(4-chlorobenzyl)-4-(1-(5-fluoropyrimidin-2-yl)piperidin-4-yl)-2-methylmorpholine 2,2,2-trifluoroacetate] returned an IC50 of 1 to 10 µM.

In turn, `Cc1ccnc(N2CCC(N3C[C@H](C)OC[C@@H]3Cc3ccc(Cl)cc3)CC2)c1C#N` [compound 47, 2-(4-((2S,5S)-5-(4-chlorobenzyl)-2-methylmorpholino)piperidin-1-yl)-4-methyl-nicotinonitrile 2,2,2-trifluoroacetate] yielded an IC50 of 0.1 to 1 µM.

In the case of `C[C@H]1CN(C2CCN(c3ncccc3C(F)(F)F)CC2)[C@@H](Cc2ccc(Cl)cc2)CO1` [compound 49, (2S,5S)-5-(4-chlorobenzyl)-2-methyl-4-(1-(3-(trifluoromethyl)pyridin-2-yl)-piperidin-4-yl)morpholine 2,2,2-trifluoroacetate], the IC50 was in the range of 10 to 100 µM. Take `CN1C[C@H](Cc2ccc(Cl)cc2)N(C2CCN(c3cc(Cl)ccn3)CC2)C[C@@H]1CO` [compound 50, ((2R,5S)-5-(4-chlorobenzyl)-4-(1-(4-chloropyridin-2-yl)piperidin-4-yl)-1-methyl-piperazin-2-yl)methanol]: the IC50 was < 0.1 µM. In the case of `C[C@H]1CN(C2C[C@H]3CC[C@@H](C2)N3c2cc(Cl)ccn2)[C@@H](Cc2ccc(Cl)cc2)CO1` (stereo partly drawn) [compound 58, (2S,5S)-5-(4-chlorobenzyl)-4-((1R,5S)-8-(4-chloropyridin-2-yl)-8-azabicyclo[3.2.1]octan-3-yl)-2-methylmorpholine 2,2,2-trifluoroacetate], the IC50 was > 100 µM. The compound `CO[C@@H]1CN(c2cc(Cl)ccn2)CC[C@@H]1N1C[C@H](C)OC[C@@H]1Cc1ccc(Cl)cc1` [compound 59, (2S,5S)-5-(4-chlorobenzyl)-4-((3R,4S)-1-(4-chloropyridin-2-yl)-3-methoxypiperidin-4-yl)-2-methylmorpholine 2,2,2-trifluoroacetate] had a half-inhibitory concentration (IC50) of 1 to 10 µM. The compound `CO[C@H]1CN(c2cc(Cl)ccn2)CC[C@@H]1N1C[C@H](C)OC[C@@H]1Cc1ccc(Cl)cc1` [compound 60, (2S,5S)-5-(4-chlorobenzyl)-4-((3S,4S)-1-(4-chloropyridin-2-yl)-3-methoxypiperidin-4-yl)-2-methylmorpholine 2,2,2-trifluoroacetate] returned an IC50 of 10 to 100 µM. For the compound `CC(C)[C@H]1CN(C2CCN(c3ccccn3)CC2)[C@@H](Cc2ccc(Cl)cc2)CN1C` [compound 62, (2S,5S)-2-(4-chlorobenzyl)-5-isopropyl-4-methyl-1-(1-(pyridin-2-yl)piperidin-4-yl)piperazine 2,2,2-trifluoroacetate], the IC50 was < 0.1 µM. `CN1CCN(C2CCN(c3ccccn3)CC2)[C@@H](Cc2ccc(Cl)cc2)C1` [compound 64, (S)-2-(4-chlorobenzyl)-4-methyl-1-(1-(pyridin-2-yl)piperidin-4-yl)piperazine 2,2,2-trifluoroacetate]: the IC50 was in the range of 0.1 to 1 µM. With `C[C@H]1CN(C2CCN(c3ccnc(Cl)n3)CC2)[C@@H](Cc2ccc(Cl)cc2)CO1` [compound 66, (2S,5S)-5-(4-chlorobenzyl)-4-(1-(2-chloropyrimidin-4-yl)piperidin-4-yl)-2-methylmorpholine], the IC50 is > 100 µM. Next, `C[C@H]1CN(C2CCN(c3ccnc(N)n3)CC2)[C@@H](Cc2ccc(Cl)cc2)CO1` [compound 67, 4-(4-((2S,5S)-5-(4-chlorobenzyl)-2-methylmorpholino)piperidin-1-yl)pyrimidin-2-amine 2,2,2-trifluoroacetate]: > 100 µM. Next, `CN(C)C(=O)OC[C@H]1CN(C2CCN(c3ncccn3)CC2)[C@@H](Cc2ccc(Cl)cc2)CO1` [compound 70, ((2R,5S)-5-(4-chlorobenzyl)-4-(1-(pyrimidin-2-yl)piperidin-4-yl)morpholin-2-yl)methyl dimethylcarbamate 2,2,2-trifluoroacetate]: 1 to 10 µM; `CN1CCN(C[C@H]2CN(C3CCN(c4ncccn4)CC3)[C@@H](Cc3ccc(Cl)cc3)CO2)CC1` [compound 71, (2S,5S)-5-(4-chlorobenzyl)-2-((4-methylpiperazin-1-yl)methyl)-4-(1-(pyrimidin-2-yl)piperidin-4-yl)morpholine 2,2,2-trifluoroacetate]: 1 to 10 µM. Then `CN(C)CCN(C)C[C@H]1CN(C2CCN(c3ncccn3)CC2)[C@@H](Cc2ccc(Cl)cc2)CO1` [compound 72, N^1-(((2S,5S)-5-(4-chlorobenzyl)-4-(1-(pyrimidin-2-yl)piperidin-4-yl)morpholin-2-yl)methyl)-N^1,N^2,N^2-trimethylethane-1,2-diamine 2,2,2-trifluoroacetate], with 1 to 10 µM; and `O[C@@H]1CCN(C[C@H]2CN(C3CCN(c4ncccn4)CC3)[C@@H](Cc3ccc(Cl)cc3)CO2)C1` [compound 73, (R)-1-(((2S,5S)-5-(4-chlorobenzyl)-4-(1-(pyrimidin-2-yl)piperidin-4-yl)morpholin-2-yl)methyl)pyrrolidin-3-ol 2,2,2-trifluoroacetate], with 1 to 10 µM. `O[C@H]1CCN(C[C@H]2CN(C3CCN(c4ncccn4)CC3)[C@@H](Cc3ccc(Cl)cc3)CO2)C1` [compound 74, (S)-1-(((2S,5S)-5-(4-chlorobenzyl)-4-(1-(pyrimidin-2-yl)piperidin-4-yl)morpholin-2-yl)methyl)pyrrolidin-3-ol 2,2,2-trifluoroacetate] showed an IC50 of 1 to 10 µM. Take `CC(=O)NC[C@H]1CN(C2CCN(c3ncccn3)CC2)[C@@H](Cc2ccc(Cl)cc2)CO1` [compound 75, N-(((2S,5S)-5-(4-chlorobenzyl)-4-(1-(pyrimidin-2-yl)piperidin-4-yl)morpholin-2-yl)methyl)acetamide 2,2,2-trifluoroacetate]: the IC50 is 0.1 to 1 µM. `O=C1c2ccccc2C(=O)N1C[C@H]1CN(C2CCN(c3ncccn3)CC2)[C@@H](Cc2ccc(Cl)cc2)CO1` [compound 76, 2-(((2R,5S)-5-(4-chlorobenzyl)-4-(1-(pyrimidin-2-yl)piperidin-4-yl)morpholin-2-yl)methyl)isoindoline-1,3-dione dihydrochloride]: the IC50 was > 100 µM. Consider `O=C1CCC(=O)N1C[C@H]1CN(C2CCN(c3ncccn3)CC2)[C@@H](Cc2ccc(Cl)cc2)CO1` [compound 77, 1-(((2R,5S)-5-(4-chlorobenzyl)-4-(1-(pyrimidin-2-yl)piperidin-4-yl)morpholin-2-yl)methyl)pyrrolidine-2,5-dione 2,2,2-trifluoroacetate], for which the IC50 lay in the range of 1 to 10 µM. Then `O=C1CNC(=O)N1C[C@H]1CN(C2CCN(c3ncccn3)CC2)[C@@H](Cc2ccc(Cl)cc2)CO1` [compound 78, 3-(((2R,5S)-5-(4-chlorobenzyl)-4-(1-(pyrimidin-2-yl)piperidin-4-yl)morpholin-2-yl)methyl)imidazolidine-2,4-dione 2,2,2-trifluoroacetate], with 1 to 10 µM.

As for `Clc1ccc(C[C@H]2COc3ccccc3CN2C2CCN(c3ccccn3)CC2)cc1` [compound 81, (S)-3-(4-chlorobenzyl)-4-(1-(pyridin-2-yl)piperidin-4-yl)-2,3,4,5-tetrahydrobenzo[f][1,4]oxazepine hydrochloride], the IC50 was > 100 µM.
